Data reported in paper PMC7221086, “Trefoil factors share a lectin activity that defines their role in mucus” (Nature Communications, 2020).
Where a chain is given by its changes, count along the chain named. Where no end group is shown, it is not given here.

Legend:
[1] = system: pMucin (porcine gastric mucin); assay: TFF-mucin ELISA on pMucin; assay type: binding; conditions: immobilised pMucin, Strep-HRP detection
Procedure: (§1) A 50 mg ml^−1 stock of pMucin was prepared by resuspending porcine gastric mucin type III (Sigma) in PBS + 50 mM EDTA + 0.02% NaN3. This pMucin (1 ml) was dialysed (100 kDa NMWL) against 4 M guanidium hydrochloride (2 × 2.0 l) over 48 h at 4 °C. Precipitate was removed by centrifugation (8000×g, 20 min, 4 °C) and the soluble supernatant dialysed (100 kDa NMWL) against PBS (2 × 2.0 l) over 48 h at 4 °C. Half of this sample was treated with 50 µg ml^−1 CpGH89[29] at 30°C for 16 h. Both mucin samples were reduced with 10 mM DTT (30 min, 50 °C) then alkylated by the addition of 30 mM iodoacetamide (30 min, 50 °C). These samples were dialysed (100 kDa NMWL) against PBS (2 × 2.0 l) over 48 h at 4 °C. The concentration of all three mucin stock solutions were standardised to A280 = 1.5 using PBS. These samples were aliquoted, flash frozen in liquid N2 and stored at −80 °C.
(§2) A solution of pMucin, pMucinred or pMucinred+GH89 (100 µl, 1 µg ml^−1) in 100 mM bicarbonate buffer pH 9.4, was added to each well of a 96-well plate (flat-bottom Nunc MaxiSorp, ThermoFisher) and the plate gently nutated for 2 h at 25 °C. The wells were rinsed four times with 200 µl PBS-T (50 mM NaPi pH 7.4, 150 mM NaCl, 0.2% Tween-20) then blocked for 1 h at 25 °C with blocking buffer (50 mM NaPi pH 7.4, 150 mM NaCl, 5% w/v BSA). The wells were rinsed four times with 200 µl PBS-T then incubated with 100 µl blocking buffer containing TFF (various concentrations) and 1:1000 Strep-HRP (ThermoFisher) for 1 h at 25 °C. The wells were rinsed four times with 200 µl PBS-T then developed by adding 100 µl of TMB-Turbo (ThermoFisher) and incubated for 30 min at 25 °C. The reaction was quenched by the addition of 100 µl of 2 M H2SO4. Absorbance at 450 nm was read within 20 min using an EnVision 2105 Multimode Plate Reader (PerkinElmer). Data was analysed using Prism 8 (GraphPad).

[2] = system: pMucinred (reduced and alkylated pMucin); assay: TFF-mucin ELISA on pMucinred; assay type: binding, porcine; conditions: immobilised pMucinred, Strep-HRP detection
Procedure: as §1, §2

[3] = system: pMucinred+GH89 (pMucinred treated with CpGH89); assay: TFF-mucin ELISA on pMucinred+GH89; assay type: binding, porcine; conditions: immobilised GH89-treated mucin, Strep-HRP detection
Procedure: as §1, §2

[4] = molecular target: T1, mTFF1 (human TFF1, monomeric) (Homo sapiens, UniProt P04155); assay: Isothermal titration calorimetry of glycans against mTFF1; assay type: binding; conditions: ITC, pH 7.4, 25 °C; TFF1
T1 construct: PelB signal peptide (N, cleaved yes); His6 (C, cleaved yes); made in house; host or cells: E. coli T7 Express, periplasmic extraction
T1 sequence (P04155 with tags, fused parts or gaps): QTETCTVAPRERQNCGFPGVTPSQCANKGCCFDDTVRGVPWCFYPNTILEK
Procedure: (§3) All TFF and ligand stock solutions were prepared in the same buffer (50 mM HEPES, 50 mM NaCl, pH 7.4) and filtered (0.22 µm) just prior to titration. All control and non-binding ligand experiments were performed as 12 × 3.18 µl injections. For experiments with GlcNAc-α-1,4-Gal (Carbosynth), 25 × 1.58 µl injections were used. All runs were performed at 25 °C in a MicroCal iTC200 (Malvern).
(§4) Supplementary Table 2: Parameters used for ITC and thermodynamic terms determined for
(§5) GlcNAc-α-1,4-Gal binding to the TFFs. Data are presented as mean values ±SD for three
(§6) Protein GlcNAc-α- T n Kd ΔH ΔS -TΔS ΔG
(§7) (30 µM) 1,4-Gal (µM) (℃) (µM) (kcal · mol-1) (cal · mol-1 · K-1) (kcal · mol-1) (kcal · mol-1)

TFF2 (human TFF2) = molecular target: T2, TFF2 (human TFF2) (Homo sapiens, UniProt Q03403, N38Q); assay: Isothermal titration calorimetry of glycans against TFF2; assay type: binding; conditions: ITC, pH 7.4, 25 °C; TFF2
T2 construct: with an N-terminal gp67 signal peptide and a C-terminal His10-tag; gp67 signal peptide (N, cleaved yes); made in house; host or cells: Sf21 insect cells (baculovirus), secreted
T2 sequence (Q03403 24-129 N38Q): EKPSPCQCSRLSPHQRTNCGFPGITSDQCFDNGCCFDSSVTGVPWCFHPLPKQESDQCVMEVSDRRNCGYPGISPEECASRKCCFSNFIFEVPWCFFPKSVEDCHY
Procedure: as §3, §4, §5, §6, §7

[5] = molecular target: T3, mTFF3 (human TFF3, monomeric) (Homo sapiens, UniProt Q07654, C78S); assay: Isothermal titration calorimetry of glycans against mTFF3; assay type: binding; conditions: ITC, pH 7.4, 25 °C; TFF3
T3 construct: with an N-terminal PelB signal peptide, no interchain Cys, and a C-terminal His6-tag; PelB signal peptide (N, cleaved yes); His6 (C, cleaved yes); made in house; host or cells: E. coli T7 Express, periplasmic extraction
T3 sequence (Q07654 22-80 C78S): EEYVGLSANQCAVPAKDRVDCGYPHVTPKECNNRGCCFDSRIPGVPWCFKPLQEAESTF
Procedure: as §3, §4, §5, §6, §7

pMucin = assay: Mucin agglutination assay; assay type: biochemical, porcine; conditions: pMucin 0.02% w/v, 405 nm, 25 °C
Procedure: Mucin agglutination assays were performed at 25 °C on an EnVision 2105 Multimode Plate Reader (PerkinElmer) to monitor transmission at 405 nm over time. The assay was performed in a 96-well plate (Corning, polystyrene flat bottom clear) with 50 µl per well. pMucin concentration was kept consistent at 0.02% w/v and TFF concentration varied (0, 1, 2, 4, 8, 16 or 32 µM). The resulting curves were normalised to percent decrease in signal, averaged over three replicates and plotted using Prism 8 (GraphPad).

[6] = molecular target: reduced and alkylated pMucin; assay: ELISA; conditions: read off a plot
[7] = molecular target: commercially-available porcine gastric mucin (porcine)

mTFF3bio: site-selectively biotinylated monomeric TFF3 ({Avi‑tag(biotin)}-EEYVGLSANQCAVPAKDRVDCGYPHVTPKECNNRGCCFDSRIPGVPWCFKPLQEAECTF; also: one free cysteine, interchain disulfide not formed)
binding to pMucin by ELISA [1]: robust binding
binding / affinity to pMucinred by ELISA [2]: robust binding
binding to pMucinred+GH89 by ELISA [3]: no significant binding

OC[C@H]1O[C@H](O[C@@H]2[C@H](O)[C@@H](O)C(O)O[C@@H]2CO)[C@H](O)[C@@H](O)[C@H]1O (stereo partly drawn) [Gal-α-1,4-Gal]
affinity by ITC [4]: failed to show any affinity
affinity by ITC (TFF2 (human TFF2)): failed to show any affinity
affinity by ITC [5]: failed to show any affinity

CC(=O)N[C@H]1[C@@H](OCc2ccccc2)O[C@H](CO)[C@@H](O)[C@@H]1O [benzyl α-D-GlcNAc]
affinity by ITC [4]: no detectable affinity
affinity by ITC (TFF2 (human TFF2)): no detectable affinity
affinity by ITC [5]: no detectable affinity

mTFF1bio: site-selectively biotinylated monomeric TFF1 ({Avi‑tag(biotin)}-EAQTETCTVAPRERQNCGFPGVTPSQCANKGCCFDDTVRGVPWCFYPNTIDVPPEEECEF; also: one free cysteine, interchain disulfide not formed)
binding to pMucin by ELISA [1]: robust binding
binding / affinity to pMucinred by ELISA [2]: robust binding
binding to pMucinred+GH89 by ELISA [3]: no significant binding

Dimeric TFF1: dimeric wild-type TFF1 construct used in the pMucin agglutination assay ({Avi‑tag(biotin)}-EAQTETCTVAPRERQNCGFPGVTPSQCANKGCCFDDTVRGVPWCFYPNTIDVPPEEECEF; also: homodimer via interchain disulfide, Cys not given here)
lowest concentration inducing dose-dependent increase in light scattering over time (pMucin): 4 µM

OC[C@H]1O[C@H](O[C@H]2[C@H](O)[C@@H](O)[C@H](O)O[C@@H]2CO)[C@H](O)[C@@H](O)[C@@H]1O [maltose]
affinity by ITC [4]: failed to show any affinity
affinity by ITC (TFF2 (human TFF2)): failed to show any affinity
affinity by ITC [5]: failed to show any affinity

biotinylated dimeric TFF1 (from UniProt P04155) W41A
response (Abs. @ 450 nm) ([6]; 25 nM TFF, parent: est. 1.3): 0.06
response (Abs. @ 450 nm) ([6]; 1000 nM TFF, parent: est. 1.3): 0.045

dTFF3bio-W47A: biotinylated dimeric TFF3 with W47A mutation ({Avi‑tag(biotin)}-EEYVGLSANQCAVPAKDRVDCGYPHVTPKECNNRGCCFDSRIPGVPACFKPLQEAECTF; also: homodimer via interchain disulfide, Cys not given here)
binding / affinity to pMucinred by ELISA [2]: completely inactive

CC(=O)N[C@H]1C(O)O[C@H](CO)[C@@H](O)[C@@H]1O (stereo partly drawn) [D-GlcNAc]
affinity by ITC [4]: no detectable affinity
affinity by ITC (TFF2 (human TFF2)): no detectable affinity
affinity by ITC [5]: no detectable affinity

CC(=O)N[C@H]1[C@@H](Oc2ccc([N+](=O)[O-])cc2)O[C@H](CO)[C@@H](O)[C@@H]1O [4-nitrophenyl α-D-GlcNAc]
affinity by ITC [4]: no detectable affinity
affinity by ITC (TFF2 (human TFF2)): no detectable affinity
affinity by ITC [5]: no detectable affinity

dTFF1bio: biotinylated dimeric TFF1 construct, wild type ({Avi‑tag(biotin)}-EAQTETCTVAPRERQNCGFPGVTPSQCANKGCCFDDTVRGVPWCFYPNTIDVPPEEECEF; also: homodimer via interchain disulfide, Cys not given here)
binding to pMucinred+GH89 by ELISA [3]: does not bind

biotinylated dimeric TFF3 (from UniProt Q07654) W47A
response (Abs. @ 450 nm) ([6]; 25 nM TFF, parent: est. 1.2): 0.035
response (Abs. @ 450 nm) ([6]; 1000 nM TFF, parent: est. 1.2): 0.04

dTFF3bio-D20A: biotinylated dimeric TFF3 with D20A mutation ({Avi‑tag(biotin)}-EEYVGLSANQCAVPAKDRVACGYPHVTPKECNNRGCCFDSRIPGVPWCFKPLQEAECTF; also: homodimer via interchain disulfide, Cys not given here)
binding / affinity to pMucinred by ELISA [2]: barely any detectable affinity

biotinylated dimeric TFF3 (from UniProt Q07654) D20A
response (Abs. @ 450 nm) ([6]; 25 nM TFF, parent: est. 1.2): 0.04
response (Abs. @ 450 nm) ([6]; 1000 nM TFF, parent: est. 1.2): 0.095

biotinylated dimeric TFF1 (from UniProt P04155) N14A
response (Abs. @ 450 nm) ([6]; 25 nM TFF, parent: est. 1.3): 0.68
response (Abs. @ 450 nm) ([6]; 1000 nM TFF, parent: est. 1.3): 1

Dimeric TFF3: dimeric wild-type TFF3 construct used in the pMucin agglutination assay ({Avi‑tag(biotin)}-EEYVGLSANQCAVPAKDRVDCGYPHVTPKECNNRGCCFDSRIPGVPWCFKPLQEAECTF; also: homodimer via interchain disulfide, Cys not given here)
lowest concentration inducing dose-dependent increase in light scattering over time (pMucin): 4 µM

B1: biotinylated dimeric TFF3 (natural protein)
chain: T3 sequence (Q07654 22-80 C78S) with S57C
modifications: also: dimer via interchain disulfide, biotin on Avi-tag (BirA), tag not in chain
EC50 of the glycoside hydrolase CpGH89 (0-512 nM, 20 h, 30 °C) for liberating bound dTFF3bio from immobilised pMucin, read by ELISA [7]: 0.4 nM

B2: biotinylated dimeric TFF1 (natural protein)
chain: EAQTETCTVAPRERQNCGFPGVTPSQCANKGCCFDDTVRGVPWCFYPNTIDVPPEEECEF
modifications: also: dimer via interchain disulfide, biotin on Avi-tag (BirA), tag not in chain
EC50 of the glycoside hydrolase CpGH89 (0-512 nM, 20 h, 30 °C) for liberating bound dTFF1bio from immobilised pMucin, read by ELISA [7]: 0.8 nM

B3: TFF2bio: biotinylated TFF2, positive control (protein)
chain: T2 sequence (Q03403 24-129 N38Q) with Q15N
modifications: biotin, non-specific (EZ-Link NHS-PEG4-biotin); left off: His10, C-terminal, state not stated
notes: biotinylated TFF2, positive control
binding to pMucin by ELISA [1]: robust binding
binding / affinity to pMucinred by ELISA [2]: robust binding
binding to pMucinred+GH89 by ELISA [3]: no significant binding
